Reference: patent US20110262945A1, “GLYCOPROTEIN PRODUCTION METHOD AND SCREENING METHOD” (OTSUKA CHEMICAL CO., LTD., priority 2008, published 2011)
Where a SMILES comes first, the peptide text is derived from it. [ ]: non-standard residue; d: D form. Thz = O=C(O)[C@@H]1CSCN1

What was measured:
Chymotrypsin [1] = target: T1, Chymotrypsin (Bos taurus, UniProt P00766); experiment: Michaelis-Menten plot of the substrate peptide (degradation by chymotrypsin); type: biochemical; set-up: unit not given here; conditions: 30 minutes at 37° C.
Method: (§1) Into 1 mL of a 0.1 M phosphate buffer (pH 8.0, containing BSA (0.1 mg/mL)), 3.1 mg of the 14-residue peptide thus synthesized (SEQ ID NO:16) was dissolved to prepare a 2 mM solution. This solution was diluted to prepare substrate solutions having concentrations of 1.6 mM, 1.2 mM, 0.8 mM, 0.4 mM, 0.2 mM, 0.1 mM, and 0.05 mM. Separately, chymotrypsin (1 mg) was dissolved in 1 mL of a 0.1 M phosphate buffer (pH 8.0, containing BSA (0.1 mg/mL)). The resulting solution was diluted 10-fold, and further diluted 10-fold. The above operation was repeated so that a solution of 0.1 μg/mL was prepared. Into the same Eppendorf tube, 50 μL of a substrate solution of each concentration that was sufficiently cooled on ice and 50 μL of the enzyme solution were transferred, followed by incubation for 30 minutes at 37° C. After 30 minutes, the reaction was terminated by addition of 10 μL of 1N hydrochloric acid. Then, 20 μL of the resulting reaction solution was mixed with 80 μL of buffer to make up a total of 100 μL, which was then measured by HPLC. A degradation rate per unit time (a reaction rate per unit time) was calculated from the peak area of HPLC of the reaction product (FIG. 36).

Chymotrypsin [2] = target: T1, Chymotrypsin; experiment: Lineweaver-Burk plot of the substrate peptide (degradation by chymotrypsin); type: biochemical; conditions: 30 minutes at 37° C.
Method: as §1, with “mg/mL)), 1.5” for “mg/mL)), 3.1”, “a 1” for “a 2”, “of 1” for “of 1.6”, “mM, 500 μM, 333 μM, 250 μM,” for “mM, 1.2 mM, 0.8 mM, 0.4 mM, 0.2 mM, 0.1 mM,”, “and 200 μM.” for “and 0.05 mM.”, “(FIG. 37).” for “(FIG. 36).”

C[C@@H](O)[C@H](NC(=O)[C@H](CCCCN)NC(=O)[C@H](CC(N)=O)NC(=O)[C@H](CC(=O)O)NC(=O)[C@H](CO)NC(=O)CNC(=O)[C@@H]1CSCN1)C(=O)N[C@@H](Cc1ccc(O)cc1)C(=O)NCC(=O)N[C@@H](CC(N)=O)C(=O)N[C@@H](CCCCN)C(=O)N[C@@H](CS)C(=O)N[C@@H](CC(N)=O)C(=O)N[C@@H](Cc1ccccc1)C(=O)O [substrate peptide] (H-[Thz]GSDNKTYGNKCNF-OH)
V (reaction rate per unit time) (Chymotrypsin [1]; substrate 0.05 mM): 0.013 | V (reaction rate per unit time) (Chymotrypsin [1]; substrate 0.1 mM): 0.027 | V (reaction rate per unit time) (Chymotrypsin [1]; substrate 0.2 mM): 0.046 | V (reaction rate per unit time) (Chymotrypsin [1]; substrate 0.4 mM): 0.068 | V (reaction rate per unit time) (Chymotrypsin [1]; substrate 0.6 mM): 0.075 | V (reaction rate per unit time) (Chymotrypsin [1]; substrate 0.8 mM): 0.083 | V (reaction rate per unit time) (Chymotrypsin [1]; substrate 1 mM): 0.087 | 1/V (inverse of the reaction rate) (Chymotrypsin [2]; 1/Substrate 2 1/mM): 7.02 mol⁻¹ min⁻¹ | 1/V (inverse of the reaction rate) (Chymotrypsin [2]; 1/Substrate 4 1/mM): 8.51 mol⁻¹ min⁻¹ | 1/V (inverse of the reaction rate) (Chymotrypsin [2]; 1/Substrate 6 1/mM): 11.9 mol⁻¹ min⁻¹ | 1/V (inverse of the reaction rate) (Chymotrypsin [2]; 1/Substrate 8 1/mM): 10.9 mol⁻¹ min⁻¹ | 1/V (inverse of the reaction rate) (Chymotrypsin [2]; 1/Substrate 10 1/mM): 14.7 mol⁻¹ min⁻¹
